The values below come from patent US9028845B2, “Chimeric immunomodulatory compounds and methods of using the same-IV” (Dynavax Technologies Corporation, priority 2001, dated 2015).

The assay concerns human PBMCs. Nature of the assay: Human PBMC cytokine response assay (IFN-γ and IFN-α in cell-free medium by ELISA), with or without cPLGA.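 As to IFN-α (pg/ml) mean: 20 µg/mL compound for 24 hours.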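 As to IFN-γ (pg/ml) mean: 20 µg/mL compound for 24 hours.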 Type of assay: cell-based. Particulars: for IFN-α (pg/ml) mean / IFN-γ (pg/ml) mean: mean of donors 110, 112, 119, 120. (In general: An ELISA detects its analyte on a solid surface through an enzyme-linked reagent.)
Setting [1] is: Table 25, mean of donors 28250-28253.
Setting [2] is: Table 24, mean of donors 28234-28237.
Where [3] appears, read: mean of donors 28185-28188, Table 15.

As to “5′-TCGAGAT-3′ [Compound P-13, reference compound]”, the IFN-a runs as follows: (Table 25, donor 28250) 16 pg/mL; (Table 25, donor 28251) 16 pg/mL; (Table 25, donor 28252) 16 pg/mL; (Table 25, donor 28253) 16 pg/mL. Besides, the IFN-g by setting is: (Table 25, donor 28250, polynucleotides/spacers at amounts equivalent to the CIC, spacers alone 9 uM) 18 pg/mL; (Table 25, donor 28251) 13 pg/mL; (Table 25, donor 28252) 22 pg/mL; (Table 25, donor 28253) 1 pg/mL. Also, the IFN-a mean under setting [1] is 16 pg/mL. Besides, the IFN-g mean under setting [1] is 14 pg/mL.

For the substance “5′-TCCA-3′-C3-5′-TGACGTT-3′-C3-5′-CCTGATGCT-3′ [Compound C-88]”, the IFN-α reads like this: (Table 24, donor 28234) 95 pg/mL; (Table 24, donor 28235) 16 pg/mL; (Table 24, donor 28236) 212 pg/mL; (Table 24, donor 28237) 111 pg/mL. For the same substance, the IFN-γ runs as follows: (Table 24, donor 28234) 5 pg/mL; (Table 24, donor 28235) 21 pg/mL; (Table 24, donor 28236) 17 pg/mL; (Table 24, donor 28237) 477 pg/mL. This substance also showed an IFN-α mean under setting [2] of 109 pg/mL. The same substance came in with an IFN-γ mean under setting [2] of 130 pg/mL.

With “5′-TCGTCGT-3′-HEG-5′-TGTCGTT-3′-HEG-5′-TGTCGTT-3′ [Compound C-47]”, the IFN-α is, setting by setting: (Table 10, donor 28042) 20 pg/mL; (Table 10, donor 28043) 0 pg/mL; (Table 10, donor 28044) 0 pg/mL; (Table 10, donor 28045) 0 pg/mL. Further, the IFN-γ reads like this: (Table 10, donor 28042) 112 pg/mL; (Table 10, donor 28043) 537 pg/mL; (Table 10, donor 28044) 142 pg/mL; (Table 10, donor 28045) 17 pg/mL. This substance also registered an IFN-α mean (Table 10, mean of donors) of 5 pg/mL. Under “Table 10, mean of donors”, this substance came in with an IFN-γ mean of 202 pg/mL.

As to “5′-TGCTGCA-3′-C3-5′-AGCTTGC-3′-C3-5′-AGATGAT-3′ (No CG) [Compound C-86]”, the “IFN-a” value reads like this: (donor 28185, Table 15) 7 pg/mL; (donor 28186, Table 15) 4 pg/mL; (donor 28187, Table 15) 4 pg/mL; (donor 28188, Table 15) 31 pg/mL. Further, the “IFN-g” value worked out at 1 pg/mL (donor 28185, Table 15); 4 pg/mL (donor 28186, Table 15); 30 pg/mL (donor 28187, Table 15); 5 pg/mL (donor 28188, Table 15). Further, the “IFN-a (pg/ml) mean” value under setting [3] came to 11 pg/mL. Further, the “IFN-g (pg/ml) mean” value under setting [3] stood at 10 pg/mL. Further, for the setting “mean ×2, Table 15”, the “IFN-a (pg/ml) ×2” value is 22 pg/mL. For the setting “mean ×4, Table 15”, the “IFN-g (pg/ml) ×4” value stood at 40 pg/mL.

“5′-AGATGAT-3′-HEG-5′-TCGTCGA-3′-HEG-5′-ACGTTCG-3′ [Compound C-59]”: the “IFN-α” value reads like this: (donor 110, Table 14) 2 pg/mL; (donor 112, Table 14) 6 pg/mL; (donor 119, Table 14) 2 pg/mL; (donor 120, Table 14) 2 pg/mL. Besides, the “IFN-γ” value was determined as 256 pg/mL (donor 110, Table 14); 52 pg/mL (donor 112, Table 14); 28 pg/mL (donor 119, Table 14); 40 pg/mL (donor 120, Table 14). For the same substance, the “IFN-α (pg/ml) mean” value (Table 14) was 3 pg/mL. Besides, the “IFN-γ (pg/ml) mean” value (Table 14) amounted to 94 pg/mL.

“5′-TCGTTTT-3′-HEG-5′-TCGTTTT-3′-HEG-5′-TCGTTTT-3′ [Compound C-41]”: the IFN-α by setting is: (Table 10, donor 28042) 0 pg/mL; (Table 10, donor 28043) 3 pg/mL; (Table 10, donor 28044) 23 pg/mL; (Table 10, donor 28045) 0 pg/mL; (donor 110, Table 14) 58 pg/mL; (donor 112, Table 14) 2 pg/mL. Further, the “IFN-α” value is, setting by setting: (donor 119, Table 14) 182 pg/mL; (donor 120, Table 14) 6 pg/mL. Besides, the IFN-γ reads like this: (Table 10, donor 28042) 174 pg/mL; (Table 10, donor 28043) 1075 pg/mL; (Table 10, donor 28044) 841 pg/mL; (Table 10, donor 28045) 45 pg/mL; (donor 110, Table 14) 512 pg/mL; (donor 112, Table 14) 100 pg/mL. Also, the “IFN-γ” value is, setting by setting: (donor 119, Table 14) 32 pg/mL; (donor 120, Table 14) 32 pg/mL. The IFN-α mean (Table 10, mean of donors) worked out at 7 pg/mL. For the same substance, the IFN-γ mean (Table 10, mean of donors) was 534 pg/mL. For the same substance, the “IFN-α (pg/ml) mean” value (Table 14) was found to be 62 pg/mL. Also, the “IFN-γ (pg/ml) mean” value (Table 14) was 169 pg/mL.
